Laboratory results reported in ChEMBL document CHEMBL1128536, “Tyrosine kinase inhibitors. 5. Synthesis and structure-activity relationships for 4-[(phenylmethyl)amino]- and 4-(phenylamino)quinazolines as potent adenosine 5'-triphosphate binding site inhibitors of the tyrosine kinase domain of the epidermal growth factor receptor” (J Med Chem, 1995).

Key:
[1] = target: T1, Epidermal growth factor receptor (Homo sapiens, UniProt P00533); experiment: Inhibition of Epidermal growth factor receptor from A431 cells
[2] = target: T1, Epidermal growth factor receptor; experiment: Evaluation of inhibitory activity against phospholipase C-gamma1 phosphorylation by Epidermal growth factor receptor enzyme isolated from A431 cells.

T1 sequence (P00533 whole entry): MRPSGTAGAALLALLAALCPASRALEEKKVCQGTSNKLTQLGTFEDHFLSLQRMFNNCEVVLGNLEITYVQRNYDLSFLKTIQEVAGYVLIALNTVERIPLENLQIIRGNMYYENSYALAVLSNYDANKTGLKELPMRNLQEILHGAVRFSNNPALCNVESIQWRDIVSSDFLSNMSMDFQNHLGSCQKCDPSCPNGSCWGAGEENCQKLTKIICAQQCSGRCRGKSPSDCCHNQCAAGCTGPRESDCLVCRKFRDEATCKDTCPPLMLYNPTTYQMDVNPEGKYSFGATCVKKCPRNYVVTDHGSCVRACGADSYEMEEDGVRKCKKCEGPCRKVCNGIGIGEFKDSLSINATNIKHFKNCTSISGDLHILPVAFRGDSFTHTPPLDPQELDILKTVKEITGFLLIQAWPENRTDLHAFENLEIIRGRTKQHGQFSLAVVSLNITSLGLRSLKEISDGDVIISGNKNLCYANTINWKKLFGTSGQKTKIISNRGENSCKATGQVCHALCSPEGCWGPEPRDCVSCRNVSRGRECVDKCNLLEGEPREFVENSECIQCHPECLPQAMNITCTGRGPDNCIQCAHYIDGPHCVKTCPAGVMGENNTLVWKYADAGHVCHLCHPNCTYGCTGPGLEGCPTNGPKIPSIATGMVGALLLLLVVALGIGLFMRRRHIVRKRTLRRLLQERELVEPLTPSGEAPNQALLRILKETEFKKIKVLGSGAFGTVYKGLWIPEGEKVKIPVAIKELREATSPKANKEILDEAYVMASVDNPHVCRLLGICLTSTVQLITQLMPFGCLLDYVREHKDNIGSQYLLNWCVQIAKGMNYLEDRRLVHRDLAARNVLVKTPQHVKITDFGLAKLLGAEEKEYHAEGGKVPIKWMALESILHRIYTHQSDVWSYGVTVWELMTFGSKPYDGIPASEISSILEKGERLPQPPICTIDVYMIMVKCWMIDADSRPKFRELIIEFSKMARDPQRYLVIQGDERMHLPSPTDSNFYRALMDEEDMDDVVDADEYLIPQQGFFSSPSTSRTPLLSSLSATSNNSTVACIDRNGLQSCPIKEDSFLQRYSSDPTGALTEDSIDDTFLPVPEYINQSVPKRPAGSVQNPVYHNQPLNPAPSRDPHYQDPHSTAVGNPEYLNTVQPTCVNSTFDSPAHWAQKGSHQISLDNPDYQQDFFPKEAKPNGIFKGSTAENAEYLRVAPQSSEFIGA

Oc1cc2ncnc(Nc3cccc(Br)c3)c2cc1O
IC50 [1]: 0.17 nM

COc1cc2ncnc(NCc3ccccc3)c2cc1O
IC50 [2]: 56 nM

COc1cccc2c(Nc3cccc(Br)c3)ncnc12
IC50 [1]: 974 nM

Clc1cccc(Nc2ncnc3ccccc23)c1
IC50 [2]: 23 nM

Clc1ccc(CNc2ncnc3ccccc23)cc1
IC50 [2]: 7000 nM

COc1cccc2ncnc(NCc3ccccc3)c12
IC50 [2]: 4900 nM

Nc1cccc2ncnc(Nc3cccc(Br)c3)c12
IC50 [2]: 439 nM

O=[N+]([O-])c1cccc2ncnc(Nc3cccc(Br)c3)c12
IC50 [1]: 355 nM

Brc1cccc(Nc2cnc3ccccc3n2)c1
IC50 [2]: > 100000 nM

O=[N+]([O-])c1cccc2c(Nc3cccc(Br)c3)ncnc12
IC50 [2]: > 10000 nM

O=[N+]([O-])c1cccc2c(NCc3ccccc3)ncnc12
IC50 [1]: > 10000 nM

COc1cccc2ncnc(Nc3cccc(Br)c3)c12
IC50 [2]: 139 nM

COc1ccc(CNc2ncnc3ccccc23)cc1
IC50 [2]: 10000 nM

COc1ccc2ncnc(NCc3ccccc3)c2c1
IC50 [2]: 200 nM

Nc1cccc2c(Nc3cccc(Br)c3)ncnc12
IC50 [2]: 105 nM

COc1cc2ncnc(NCc3ccccc3)c2cc1OC
IC50 [2]: 10 nM

Cc1cccc(Nc2ncnc3ccccc23)c1
IC50 [2]: 910 nM

O=[N+]([O-])c1ccc2ncnc(Nc3cccc(Br)c3)c2c1
IC50 [2]: 897 nM

FC(F)(F)c1cccc(Nc2ncnc3ccccc23)c1
IC50 [2]: 577 nM

Nc1ccc2c(NCc3ccccc3)ncnc2c1
IC50 [2]: > 1000 nM

COc1ccc2ncnc(Nc3cccc(Br)c3)c2c1
IC50 [2]: 348 nM

Brc1cccc(Nc2ccnc3ccccc23)c1
IC50 [2]: 5500 nM

O=[N+]([O-])c1ccc2c(Nc3cccc(Br)c3)ncnc2c1
IC50 [2]: 1000 nM

Nc1cccc2c(NCc3ccccc3)ncnc12
IC50 [1]: > 10000 nM

c1ccc(CNc2ncnc3ccccc23)cc1
IC50 [1]: 320 nM

CN(c1ccccc1)c1ncnc2ccccc12
IC50 [2]: 100000 nM

Brc1cccc(Oc2ncnc3ccccc23)c1
IC50 [2]: 756 nM

COc1ccc2c(NCc3ccccc3)ncnc2c1
IC50 [2]: 58 nM

COc1cc2c(NCc3ccccc3)ncnc2cc1O
IC50 [2]: 588 nM

Brc1cccc(Nc2nnnc3ccccc23)c1
IC50 [2]: > 1000 nM

Nc1ccc2ncnc(NCc3ccccc3)c2c1
IC50 [2]: 1400 nM

Ic1cccc(Nc2ncnc3ccccc23)c1
IC50 [2]: 80 nM

Brc1cccc(Nc2nccc3ccccc23)c1
IC50 [2]: > 100000 nM

Nc1cc2ncnc(Nc3cccc(Br)c3)c2cc1N
IC50 [2]: 0.12 nM

c1ccc(CCNc2ncnc3ccccc23)cc1
IC50 [2]: 4100 nM

COc1ccc2c(Nc3cccc(Br)c3)ncnc2c1
IC50 [2]: 10 nM

Brc1cccc(Nc2nncc3ccccc23)c1
IC50 [2]: > 100000 nM

COc1cccc2c(NCc3ccccc3)ncnc12
IC50 [2]: > 10000 nM

O=[N+]([O-])c1cccc2ncnc(NCc3ccccc3)c12
IC50 [2]: 8000 nM

Nc1cccc2ncnc(NCc3ccccc3)c12
IC50 [2]: > 10000 nM

O=[N+]([O-])c1ccc2c(NCc3ccccc3)ncnc2c1
IC50 [2]: 5900 nM

Brc1cccc(Nc2cnnc3ccccc23)c1
IC50 [2]: > 10000 nM

O=[N+]([O-])c1ccc2ncnc(NCc3ccccc3)c2c1
IC50 [2]: > 10000 nM
